Read-outs that look alike come from different tables or passages of the source.
Legend:
Type in all cases: cell-based
ΔF508-CFTR [1] = molecular target: T1, ΔF508-CFTR (Homo sapiens, UniProt P13569, DEL508-508); assay: CFTR cell surface levels using HRP-tagged ΔF508-CFTR expressing CFBE cells, in the presence of a co-corrector
T1 construct: host or cells: CFBE41o-, doxycycline-inducible
How it was run: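 Chemiluminescent read-out of surface HRP (15 min, dark) after PBS washes. Activity is normalized as 100×(sample−DMSO)/(3 μM co-corrector alone−DMSO).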

ΔF508-CFTR [2] = molecular target: T1, ΔF508-CFTR; assay: CFTR cell surface levels using HRP-tagged ΔF508-CFTR expressing CFBE cells, intrinsic corrector capacity; design: % Activation: concentration or dose not given beside the values
How it was run: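 Read-out: chemiluminescent HRP activity of ECL4-HRP-tagged ΔF508-CFTR at the cell surface, 15 min substrate in dark. Normalized as 100×(sample−DMSO)/(positive control−DMSO).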

CFTR ΔF508 = molecular target: T2, CFTR ΔF508 (Homo sapiens, UniProt P13569, DEL508-508); assay: Chronic TECC assay, primary bronchial epithelial cells of CF patients homozygous for CFTR ΔF508 (corrector, co-corrector and potentiator); details: for % Activity at 1 μM (Ieq*) / % Activity at 1 μM (AUC**): test compound at 1 μM; for % Activity at 3 μM (AUC**): test compound at 3 μM
T2 construct: bronchial epithelial cells isolated from CF patients homozygous for the CFTR ΔF508 mutation; McGill University; Asterand; University of North Carolina hAEC-CF; host or cells: primary human bronchial epithelial cells from CF patients homozygous for ΔF508, differentiated at air-liquid interface
How it was run: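 Primary bronchial epithelial cells from ΔF508-homozygous CF patients on collagen IV-coated Transwells were chronically treated with test compound plus corrector and potentiator, which were re-added before recording. Ieq was derived from PD and Rt in NaCl-Ringer, pH 7.4, at 37° C, with apical amiloride and bilateral forskolin, recorded every 2 min over 20 min. Ieq increase was normalized to controls, and EC50 was taken from per-well concentrations.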

[3] = HRP-tagged ΔF508-CFTR CFBE cells, in the presence of 3 μM co-corrector
[4] = HRP-tagged ΔF508-CFTR CFBE cells, in the presence of 3 μM co-corrector, read-out: EC50
[5] = HRP-tagged ΔF508-CFTR expressing CFBE41o- cells, compound alone (intrinsic corrector capacity), 20 hours at 33° C.
[6] = HRP-tagged ΔF508-CFTR expressing CFBE41o- cells, compound alone (intrinsic corrector capacity), 20 hours at 33° C., read-out: EC50
[7] = chronic TECC, Ieq = calculations based on the maximum current, read-out: EC50 (nM) (Ieq*)
[8] = chronic TECC, Ieq = calculations based on the maximum current
[9] = chronic TECC, AUC = full area under the curve upon forskolin stimulation
[10] = chronic TECC, AUC = full area under the curve upon forskolin stimulation, read-out: EC50 (nM) (AUC**)

T2 sequence (P13569 with tags, fused parts or gaps DEL508-508): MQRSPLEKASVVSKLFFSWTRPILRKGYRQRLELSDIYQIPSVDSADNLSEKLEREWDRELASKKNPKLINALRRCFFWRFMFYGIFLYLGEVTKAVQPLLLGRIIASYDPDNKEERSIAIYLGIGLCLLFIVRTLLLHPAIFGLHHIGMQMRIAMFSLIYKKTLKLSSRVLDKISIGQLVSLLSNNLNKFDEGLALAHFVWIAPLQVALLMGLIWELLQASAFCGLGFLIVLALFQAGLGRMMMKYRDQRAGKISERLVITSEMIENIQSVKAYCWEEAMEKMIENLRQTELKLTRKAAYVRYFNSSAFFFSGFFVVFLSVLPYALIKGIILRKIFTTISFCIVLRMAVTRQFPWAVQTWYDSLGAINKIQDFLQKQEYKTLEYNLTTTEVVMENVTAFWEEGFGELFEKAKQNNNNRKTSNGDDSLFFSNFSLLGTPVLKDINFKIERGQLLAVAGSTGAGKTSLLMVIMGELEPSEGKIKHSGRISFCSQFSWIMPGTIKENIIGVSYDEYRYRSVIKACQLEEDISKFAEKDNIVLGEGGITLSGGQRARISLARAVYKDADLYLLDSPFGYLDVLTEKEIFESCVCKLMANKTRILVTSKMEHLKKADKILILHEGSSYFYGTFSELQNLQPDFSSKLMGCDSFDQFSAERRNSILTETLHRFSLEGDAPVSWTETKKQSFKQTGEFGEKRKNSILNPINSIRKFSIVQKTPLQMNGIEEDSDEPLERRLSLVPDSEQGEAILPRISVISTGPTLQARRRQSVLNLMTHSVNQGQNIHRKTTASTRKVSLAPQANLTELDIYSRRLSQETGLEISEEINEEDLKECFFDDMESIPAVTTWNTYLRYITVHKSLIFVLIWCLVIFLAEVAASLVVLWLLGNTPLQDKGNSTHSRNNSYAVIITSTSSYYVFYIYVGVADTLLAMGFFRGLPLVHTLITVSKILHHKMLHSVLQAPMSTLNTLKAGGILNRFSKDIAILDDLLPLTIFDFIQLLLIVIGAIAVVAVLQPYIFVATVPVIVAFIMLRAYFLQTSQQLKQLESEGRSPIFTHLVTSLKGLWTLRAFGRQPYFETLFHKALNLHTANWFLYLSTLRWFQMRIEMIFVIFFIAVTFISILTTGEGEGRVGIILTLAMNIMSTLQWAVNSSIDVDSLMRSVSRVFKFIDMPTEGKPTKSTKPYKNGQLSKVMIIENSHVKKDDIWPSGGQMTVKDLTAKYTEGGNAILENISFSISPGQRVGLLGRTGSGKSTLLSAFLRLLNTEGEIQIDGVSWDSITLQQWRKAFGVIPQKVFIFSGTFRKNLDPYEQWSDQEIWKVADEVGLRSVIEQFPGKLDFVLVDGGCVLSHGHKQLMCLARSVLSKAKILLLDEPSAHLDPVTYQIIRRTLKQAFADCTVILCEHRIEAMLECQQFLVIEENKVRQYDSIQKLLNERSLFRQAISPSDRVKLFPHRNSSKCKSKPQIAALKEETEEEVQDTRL
T1 sequence (P13569 with tags, fused parts or gaps DEL508-508): as above

Row | SMILES | % Activation (ΔF508-CFTR [1]; [3]) [%] | EC50 (ΔF508-CFTR [1]; [4]) [nM] | % Activation (ΔF508-CFTR [2]; [5]) [%] | EC50 (ΔF508-CFTR [2]; [6]) [nM] | EC50 (CFTR ΔF508; [7]) [nM] | % Activity at 1 μM (Ieq*) (CFTR ΔF508; [8]) [%] | % Activity at 3 μM (AUC**) (CFTR ΔF508; [9]) [%] | EC50 (CFTR ΔF508; [10]) [nM] | % Activity at 1 μM (AUC**) (CFTR ΔF508; [9]) [%] | EC50 (ΔF508-CFTR [1]) [nM] | EC50 (ΔF508-CFTR [2]) [nM] | EC50 (CFTR ΔF508) [nM]
1 | CC(C)c1nn(-c2cccc(N3CCOCC3)c2)c2nc(C(=O)NS(C)(=O)=O)cc(-c3ccc(N4CCC(C#N)CC4)nc3)c12 [Compound 85, 4-[6-(4-cyanopiperidin-1-yl)pyridin-3-yl]-N-(methanesulfonyl)-1-[3-(morpholin-4-yl)phenyl]-3-(propan-2-yl)-1H-pyrazolo[3,4-b]pyridine-6-carboxamide] | 570.16 | 232 | 426.04 | 421 | > 1000 | 120 | – | – | – | – | – | –
2 | COCC1CCN(c2cc(C(=O)NS(=O)(=O)N3CCN(C4CC4)CC3)nc3c2c(C2CCC2)nn3-c2ccc(F)cc2)CC1 [Compound 609, 3-cyclobutyl-N-(4-cyclopropylpiperazine-1-sulfonyl)-1-(4-fluorophenyl)-4-[4-(methoxymethyl)piperidin-1-yl]-1H-pyrazolo[3,4-b]pyridine-6-carboxamide] | 414.2 | 109 | 202.53 | 249 | – | – | 306.6667 | – | – | – | – | –
3 | CN(C)S(=O)(=O)NC(=O)c1cc(N2CCC(CCN3CCOCC3)CC2)c2c(C3CCC3)nn(-c3ccc(F)cc3)c2n1 [Compound 416, 3-cyclobutyl-N-(dimethylsulfamoyl)-1-(4-fluorophenyl)-4-{4-[2-(morpholin-4-yl)ethyl]piperidin-1-yl}-1H-pyrazolo[3,4-b]pyridine-6-carboxamide] | 458.65 | 65 | 288 | 142 | – | – | – | 119 | 288.6036 | – | – | –
4 | CS(=O)(=O)NC(=O)c1cc(N2CCC(N3CCCCC3)CC2)c2c(C3CCC3)nn(-c3ccccc3)c2n1 [Compound 365, 4-([1,4′-bipiperidin]-1′-yl)-3-cyclobutyl-N-(methanesulfonyl)-1-phenyl-1H-pyrazolo[3,4-b]pyridine-6-carboxamide] | 469.95 | – | 313 | – | – | – | – | – | – | 271 | 1670 | 200
5 | CCCOC1CCN(c2cc(C(=O)NS(C)(=O)=O)nc3c2c(C2CCC2)nn3-c2ccccc2)CC1 [Compound 152, 3-cyclobutyl-N-(methanesulfonyl)-1-phenyl-4-(4-propoxypiperidin-1-yl)-1H-pyrazolo[3,4-b]pyridine-6-carboxamide] | 409.9 | 108 | 242.35 | 357 | – | – | – | 16 | 482.77 | – | – | –
6 | CNS(=O)(=O)NC(=O)c1cc(N2CCC(N3CCN(C(C)C)CC3)CC2)c2c(C3CCC3)nn(-c3ccc(F)cc3)c2n1 [Compound 638, 3-cyclobutyl-1-(4-fluorophenyl)-N-(methylsulfamoyl)-4-{4-[4-(propan-2-yl)piperazin-1-yl]piperidin-1-yl}-1H-pyrazolo[3,4-b]pyridine-6-carboxamide] | 606.08 | 95 | 398.98 | 241 | – | – | 341.3493 | 11.2 | – | – | – | –
7 | COC1CCN(c2cc(C(=O)NS(C)(=O)=O)nc3c2c(C(C)C)nn3-c2cccc(N(C)C)c2)CC1 [Compound 155, 1-[3-(dimethylamino)phenyl]-N-(methanesulfonyl)-4-(4-methoxypiperidin-1-yl)-3-(propan-2-yl)-1H-pyrazolo[3,4-b]pyridine-6-carboxamide] | 555.45 | 230 | 439.5 | 454 | – | – | – | 4 | 200 | – | – | –
8 | COCC1CCN(c2cc(C(=O)NS(C)(=O)=O)nc3c2c(C(C)C)nn3-c2cc(C)nc(C)c2)CC1 [Compound 370, 1-(2,6-dimethylpyridin-4-yl)-N-(methanesulfonyl)-4-[4-(methoxymethyl)piperidin-1-yl]-3-(propan-2-yl)-1H-pyrazolo[3,4-b]pyridine-6-carboxamide] | 343.2 | 691 | 172.2 | 1490 | – | – | 226.54 | – | – | – | – | –
9 | COCCN1CCN(c2cc(C(=O)NS(C)(=O)=O)nc3c2c(C(C)C)nn3-c2ccc(F)cc2)CC1 [Compound 340, 1-(4-fluorophenyl)-N-(methanesulfonyl)-4-[4-(2-methoxyethyl)piperazin-1-yl]-3-(propan-2-yl)-1H-pyrazolo[3,4-b]pyridine-6-carboxamide] | 319.2 | 786 | 138.95 | 1390 | – | – | – | – | 216.53 | – | – | –
10 | COCC1(OC)CCN(c2cc(C(=O)NS(C)(=O)=O)nc3c2c(C2CCC2)nn3-c2ccccc2)CC1 [Compound 247, 3-cyclobutyl-N-(methanesulfonyl)-4-[4-methoxy-4-(methoxymethyl)piperidin-1-yl]-1-phenyl-1H-pyrazolo[3,4-b]pyridine-6-carboxamide] | 281.7 | 221 | 126.8 | 460 | – | – | – | 81 | 422.93 | – | – | –
11 | CNS(=O)(=O)NC(=O)c1cc(N2CCC(N3CCN(C4CC4)CC3)CC2)c2c(C3CCC3)nn(-c3ccccc3)c2n1 [Compound 558, 3-cyclobutyl-4-[4-(4-cyclopropylpiperazin-1-yl)piperidin-1-yl]-N-(methylsulfamoyl)-1-phenyl-1H-pyrazolo[3,4-b]pyridine-6-carboxamide] | 571.35 | 106 | 399.1 | 532 | – | – | – | 4.74 | 221.9818 | – | – | –
12 | CN1CCCCC1CCOc1cc(C(=O)NS(C)(=O)=O)nc2c1c(C1CCC1)nn2-c1ccccc1 (stereo not shown) [Compound 323, 3-cyclobutyl-N-(methanesulfonyl)-4-[2-(1-methylpiperidin-2-yl)ethoxy]-1-phenyl-1H-pyrazolo[3,4-b]pyridine-6-carboxamide] | 292.85 | 372 | 144.6 | 1370 | – | – | – | – | 217.91 | – | – | –
13 | CC(C)c1nn(-c2ccc(F)cc2)c2nc(C(=O)NS(C)(=O)=O)cc(N3CCC(C4CCN(C)CC4)CC3)c12 [Compound 320, 1-(4-fluorophenyl)-N-(methanesulfonyl)-4-(1'-methyl[4,4'-bipiperidin]-1-yl)-3-(propan-2-yl)-1H-pyrazolo[3,4-b]pyridine-6-carboxamide] | 590.6 | 82.7 | 376.35 | 309 | – | – | – | – | 215.3 | – | – | –
14 | CC(C)c1nn(C2CCCCC2)c2nc(C(=O)NS(C)(=O)=O)cc(-c3ccc(N4CCC(C#N)CC4)cc3)c12 [Compound 80, 4-[4-(4-cyanopiperidin-1-yl)phenyl]-1-cyclohexyl-N-(methanesulfonyl)-3-(propan-2-yl)-1H-pyrazolo[3,4-b]pyridine-6-carboxamide] | 457.5 | 389 | 258.38 | 436 | 19.3 | 250 | – | – | – | – | – | –
15 | CN(C)S(=O)(=O)NC(=O)c1cc(N2CCC3C(CCN3C3CCC3)C2)c2c(C3CCC3)nn(-c3ccc(F)cc3)c2n1 (stereo not shown) [Compound 626, 3-cyclobutyl-4-(1-cyclobutyloctahydro-5H-pyrrolo[3,2-c]pyridin-5-yl)-N-(dimethylsulfamoyl)-1-(4-fluorophenyl)-1H-pyrazolo[3,4-b]pyridine-6-carboxamide] | 418.4 | 111 | 206.6 | 151 | – | – | 387.4854 | – | – | – | – | –
16 | CN(C)S(=O)(=O)NC(=O)c1cc(C2CCC(N3CCOCC3)CC2)c2c(C3CCC3)nn(-c3ccccc3)c2n1 (stereo not shown) [Compound 649, 3-cyclobutyl-N-(dimethylsulfamoyl)-4-[4-(morpholin-4-yl)cyclohexyl]-1-phenyl-1H-pyrazolo[3,4-b]pyridine-6-carboxamide] | 231.7 | 152 | 69.12 | 370 | – | – | 224.5026 | – | – | – | – | –
17 | CNS(=O)(=O)NC(=O)c1cc(N2CCC(N3CCC(OC)CC3)CC2)c2c(C3CCC3)nn(-c3ccc(F)cc3)c2n1 [Compound 629, 3-cyclobutyl-1-(4-fluorophenyl)-4-(4-methoxy[1,4'-bipiperidin]-1'-yl)-N-(methylsulfamoyl)-1H-pyrazolo[3,4-b]pyridine-6-carboxamide] | 546.75 | 267 | 337.34 | 517 | – | – | 153.3918 | 6.85 | – | – | – | –

Source: patent US10259810B2, “N-sulfonylated pyrazolo[3,4-b]pyridin-6-carboxamides and method of use” (AbbVie S.à.r.l., priority 2015, dated 2019)
